For one assay, the system named is HIF-1α. Kind of assay: Immunoblot of HIF-1α protein in VHL knockdown RCC cells. It counts as cell-based, human. To be noted: 1 and 10 nM CCI-779, 24 hours. The method, then: (§1) (a) SN12C-CSCG and SN12C-VHLshRNA cell were treated with vehicle, 1 nM or 10 nM of CCI-779 and lysed 24 hours later. Lysates were subjected to immunoblotting for HIF-1α, HIF-2α, GLUT-1, CA-IX, p-eIF4G, p-S6 Ribosomal protein. Equal protein loading was verified using anti-β-actin antibody. (b) HIF-1α expression was probed by immunoblotting in SN12C-MSCV-5′TOP-HIF-1α cDNA (left panel) and SN12C-MSCV-HIF-1α cDNA (tight panel) post 24 hours of vehicle, 1 nM or 10 nM of CCI-779.
(§2) Cells and xenograft tumors were lysed in ECB lysis buffer (see, e.g. Kondo et al., Cancer Cell 1, 237-46 (2002)) or high-detergent buffer (2% SDS), (see, e.g. Chen et al., Nat Med 10, 33-9 (2004)), respectively, supplemented with complete protease and phosphatase inhibitor cocktails (Calbiochem). […] Bound antibody was detected using enhanced chemiluminescence (ECL, Amersham). For VEGF ELISA quantification, cells were plated in 6 well plates (1×10^5 per well). […] Thirty-six hours later, VEGF ELISA (R&D Systems) was performed according to the manufacturer's instructions, using a Fisher Plate reader. […]
(§3) Cells and xenograft tumors were lysed in ECB lysis buffer or high-detergent buffer (2% SDS), respectively, supplemented with complete protease and phosphatase inhibitor cocktails (Calbiochem). […] Bound antibody was detected using enhanced chemiluminescence (ECL, Amersham). […]
(In general: In western blotting, separated proteins are transferred to a membrane and probed.)

The test system of another assay is GLUT-1, CA-IX and VEGF. The assay can be described thus: Expression of HIF target genes GLUT-1, CA-IX and VEGF in VHL knockdown cells. It counts as cell-based, human. To be noted: 1 and 10 nM CCI-779. How it is done: as §1, §2, §3

Structures are written as SMILES. “Also recorded” adds a separate entry of the source.

The results in this text go back to patent publication US9261498B2, “Biomarker for sensitivity to mTOR inhibitor therapy in kidney cancer” (The Regents of the University of California, priority 2005, dated 2016).

As to `CO[C@H]1C[C@@H]2CC[C@@H](C)[C@@](O)(O2)C(=O)C(=O)N2CCCC[C@H]2C(=O)O[C@H]([C@H](C)C[C@@H]2CC[C@@H](OC(=O)C(C)(CO)CO)[C@H](OC)C2)CC(=O)[C@H](C)/C=C(\C)[C@@H](O)[C@@H](OC)C(=O)[C@H](C)C[C@H](C)/C=C/C=C/C=C/1C` [CCI-779], in the assay on HIF-1α, the HIF-1α protein levels result is given as “dramatically reduced; also recorded: reduction; also recorded: decrease”. Also, the “expression of GLUT-1, CA-IX and VEGF” value in the assay on GLUT-1, CA-IX and VEGF is given as “similarly reduced; also recorded: decrease in the expression”.
